{"source": "patent US6479435B1", "about": "“Diaryl ethers and processes for their preparation and herbicidal and desiccant compositions containing them” (ISK Americas Incorporated, priority 1997, dated 2002)", "assay_type_in_all_cases": "in vivo", "key": {"[1]": {"test_system": "Johnsongrass (Sorghum halepense, SORHA)", "assay": "Pre-emerge greenhouse herbicide test, phytotoxicity rating", "conditions": "14 days after application, rating scale 0-100", "how_it_was_run": "(§1)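 Visual 0–100 injury rating (100 = all plants dead) taken 14 days after treatment. Rates of 125–1000 g ai/ha in acetone, 187 l/ha, were sprayed onto soil one day post-sowing; pots were surface-watered to incorporate, then bottom-watered.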"}, "[2]": {"test_system": "barnyardgrass (Echinochloa crusgalli, ECHCG)", "assay": "Pre-emerge greenhouse herbicide test, phytotoxicity rating", "conditions": "14 days after application, rating scale 0-100", "how_it_was_run": "as §1"}, "[3]": {"test_system": "common ragweed (Ambrosia artemisiifolia L., AMBEL)", "assay": "Pre-emerge greenhouse herbicide test, phytotoxicity rating", "conditions": "14 days after application, rating scale 0-100", "how_it_was_run": "as §1"}, "[4]": {"test_system": "green foxtail (Setaria viridis, SETVI)", "assay": "Pre-emerge greenhouse herbicide test, phytotoxicity rating", "conditions": "14 days after application, rating scale 0-100", "how_it_was_run": "as §1"}, "[5]": {"test_system": "ivyleaf morningglory (Ipomoea hederacea, IPOHE)", "assay": "Pre-emerge greenhouse herbicide test, phytotoxicity rating", "conditions": "14 days after application, rating scale 0-100", "how_it_was_run": "as §1"}, "[6]": {"test_system": "lambsquarters (Chenopodium album, CHEAL)", "assay": "Pre-emerge greenhouse herbicide test, phytotoxicity rating", "conditions": "14 days after application, rating scale 0-100", "how_it_was_run": "as §1"}, "[7]": {"test_system": "large crabgrass (Digitaria sanguinalis, DIGSA)", "assay": "Pre-emerge greenhouse herbicide test, phytotoxicity rating", "conditions": "14 days after application, rating scale 0-100", "how_it_was_run": "as §1"}, "[8]": {"test_system": "redroot pigweed (Amaranthus retroflexus, AMARE)", "assay": "Pre-emerge greenhouse herbicide test, phytotoxicity rating", "conditions": "14 days after application, rating scale 0-100", "how_it_was_run": "as §1"}, "[9]": {"test_system": "sicklepod (Cassia obtusifolia, CASOB)", "assay": "Pre-emerge greenhouse herbicide test, phytotoxicity rating", "conditions": "14 days after application, rating scale 0-100", "how_it_was_run": "as §1"}, "[10]": {"test_system": "velvetleaf (Abutilon theophrasti, ABUTH)", "assay": "Pre-emerge greenhouse herbicide test, phytotoxicity rating", "conditions": "14 days after application, rating scale 0-100", "how_it_was_run": "as §1"}, "[11]": {"test_system": "field corn (Zea mays L., var. Dekalb 535, CORN)", "assay": "Pre-emerge greenhouse test, crop damage rating", "conditions": "14 days after application, rating scale 0-100", "how_it_was_run": "as §1"}, "[12]": {"test_system": "upland rice (Oryza sp., var.Tebonnet, RICE)", "assay": "Pre-emerge greenhouse test, crop damage rating", "conditions": "14 days after application, rating scale 0-100", "how_it_was_run": "as §1"}, "[13]": {"test_system": "soybean (Glycine max L., var. Pella 86, SOY)", "assay": "Pre-emerge greenhouse test, crop damage rating", "conditions": "14 days after application, rating scale 0-100", "how_it_was_run": "as §1"}, "[14]": {"test_system": "common ragweed (Ambrosia artemisiifolia L., AMBEL)", "assay": "Post-emerge greenhouse herbicide test, phytotoxicity rating", "conditions": "14 days after application", "how_it_was_run": "(§2)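 Scores use a 0 (no damage) to 100 (complete kill) scale, taken 14 days after a foliar spray. Acetone solutions with 0.25% v/v non-ionic surfactant were applied by track sprayer at 187 l/ha and 63-1000 g ai/ha to bottom-watered 2-3 leaf plants.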"}, "[15]": {"test_system": "Johnsongrass (Sorghum halepense, SORHA)", "assay": "Post-emerge greenhouse herbicide test, phytotoxicity rating", "conditions": "14 days after application", "how_it_was_run": "as §2"}, "[16]": {"test_system": "barnyardgrass (Echinochloa crusgalli, ECHCG)", "assay": "Post-emerge greenhouse herbicide test, phytotoxicity rating", "conditions": "14 days after application", "how_it_was_run": "as §2"}, "[17]": {"test_system": "green foxtail (Setaria viridis, SETVI)", "assay": "Post-emerge greenhouse herbicide test, phytotoxicity rating", "conditions": "14 days after application", "how_it_was_run": "as §2"}, "[18]": {"test_system": "ivyleaf morningglory (Ipomoea hederacea, IPOHE)", "assay": "Post-emerge greenhouse herbicide test, phytotoxicity rating", "conditions": "14 days after application", "how_it_was_run": "as §2"}, "[19]": {"test_system": "lambsquarters (Chenopodium album, CHEAL)", "assay": "Post-emerge greenhouse herbicide test, phytotoxicity rating", "conditions": "14 days after application", "how_it_was_run": "as §2"}, "[20]": {"test_system": "large crabgrass (Digitaria sanguinalis, DIGSA)", "assay": "Post-emerge greenhouse herbicide test, phytotoxicity rating", "conditions": "14 days after application", "how_it_was_run": "as §2"}, "[21]": {"test_system": "redroot pigweed (Amaranthus retroflexus, AMARE)", "assay": "Post-emerge greenhouse herbicide test, phytotoxicity rating", "conditions": "14 days after application", "how_it_was_run": "as §2"}, "[22]": {"test_system": "sicklepod (Cassia obtusifolia, CASOB)", "assay": "Post-emerge greenhouse herbicide test, phytotoxicity rating", "conditions": "14 days after application", "how_it_was_run": "as §2"}, "[23]": {"test_system": "velvetleaf (Abutilon theophrasti, ABUTH)", "assay": "Post-emerge greenhouse herbicide test, phytotoxicity rating", "conditions": "14 days after application", "how_it_was_run": "as §2"}, "[24]": {"test_system": "field corn (Zea mays L., var. Dekalb 535, CORN)", "assay": "Post-emerge greenhouse test, crop damage rating", "conditions": "14 days after application", "how_it_was_run": "as §2"}, "[25]": {"test_system": "upland rice (Oryza sp., var.Tebonnet, RICE)", "assay": "Post-emerge greenhouse test, crop damage rating", "conditions": "14 days after application", "how_it_was_run": "as §2"}, "[26]": {"test_system": "soybean (Glycine max L., var. Pella 86, SOY)", "assay": "Post-emerge greenhouse test, crop damage rating", "conditions": "14 days after application", "how_it_was_run": "as §2"}}}
{"smiles": "COc1cc(OC)nc(Oc2cc(-n3nnn(CCCF)c3=O)c(F)cc2Cl)n1", "note": "[Compound 6-15]", "values": [{"measurement": "phytotoxicity rating SORHA", "setting": "[1]; 125 g ai/ha", "result": 0}, {"measurement": "phytotoxicity rating SORHA", "setting": "[1]; 500 g ai/ha", "result": 10}, {"measurement": "phytotoxicity rating ECHCG", "setting": "[2]; 125 g ai/ha", "result": 0}, {"measurement": "phytotoxicity rating ECHCG", "setting": "[2]; 500 g ai/ha", "result": 0}, {"measurement": "phytotoxicity rating AMBEL", "setting": "[3]; 125 g ai/ha", "result": 0}, {"measurement": "phytotoxicity rating AMBEL", "setting": "[3]; 500 g ai/ha", "result": 0}, {"measurement": "phytotoxicity rating SETVI", "setting": "[4]; 125 g ai/ha", "result": 10}, {"measurement": "phytotoxicity rating SETVI", "setting": "[4]; 500 g ai/ha", "result": 90}, {"measurement": "phytotoxicity rating IPOHE", "setting": "[5]; 125 g ai/ha", "result": 0}, {"measurement": "phytotoxicity rating IPOHE", "setting": "[5]; 500 g ai/ha", "result": 10}, {"measurement": "phytotoxicity rating CHEAL", "setting": "[6]; 125 g ai/ha", "result": 20}, {"measurement": "phytotoxicity rating CHEAL", "setting": "[6]; 500 g ai/ha", "result": 100}, {"measurement": "phytotoxicity rating DIGSA", "setting": "[7]; 125 g ai/ha", "result": 10}, {"measurement": "phytotoxicity rating DIGSA", "setting": "[7]; 500 g ai/ha", "result": 60}, {"measurement": "phytotoxicity rating AMARE", "setting": "[8]; 125 g ai/ha", "result": 30}, {"measurement": "phytotoxicity rating AMARE", "setting": "[8]; 500 g ai/ha", "result": 100}, {"measurement": "phytotoxicity rating CASOB", "setting": "[9]; 125 g ai/ha", "result": 0}, {"measurement": "phytotoxicity rating CASOB", "setting": "[9]; 500 g ai/ha", "result": 30}, {"measurement": "phytotoxicity rating ABUTH", "setting": "[10]; 125 g ai/ha", "result": 20}, {"measurement": "phytotoxicity rating ABUTH", "setting": "[10]; 500 g ai/ha", "result": 100}, {"measurement": "crop damage rating CORN", "setting": "[11]; 125 g ai/ha", "result": 0}, {"measurement": "crop damage rating CORN", "setting": "[11]; 500 g ai/ha", "result": 100}, {"measurement": "crop damage rating RICE", "setting": "[12]; 125 g ai/ha", "result": 0}, {"measurement": "crop damage rating RICE", "setting": "[12]; 500 g ai/ha", "result": 10}, {"measurement": "crop damage rating SOY", "setting": "[13]; 125 g ai/ha", "result": 0}, {"measurement": "crop damage rating SOY", "setting": "[13]; 500 g ai/ha", "result": 0}, {"measurement": "AMBEL phytotoxicity rating (0-100)", "setting": "[14]; 63 g al/ha", "result": 0}, {"measurement": "AMBEL phytotoxicity rating (0-100)", "setting": "[14]; 500 g al/ha", "result": 20}, {"measurement": "SORHA phytotoxicity rating (0-100)", "setting": "[15]; 63 g al/ha", "result": 0}, {"measurement": "SORHA phytotoxicity rating (0-100)", "setting": "[15]; 500 g al/ha", "result": 10}, {"measurement": "ECHCG phytotoxicity rating (0-100)", "setting": "[16]; 63 g al/ha", "result": 0}, {"measurement": "ECHCG phytotoxicity rating (0-100)", "setting": "[16]; 500 g al/ha", "result": 0}, {"measurement": "SETVI phytotoxicity rating (0-100)", "setting": "[17]; 63 g al/ha", "result": 0}, {"measurement": "SETVI phytotoxicity rating (0-100)", "setting": "[17]; 500 g al/ha", "result": 40}, {"measurement": "IPOHE phytotoxicity rating (0-100)", "setting": "[18]; 63 g al/ha", "result": 20}, {"measurement": "IPOHE phytotoxicity rating (0-100)", "setting": "[18]; 500 g al/ha", "result": 70}, {"measurement": "CHEAL phytotoxicity rating (0-100)", "setting": "[19]; 63 g al/ha", "result": 50}, {"measurement": "CHEAL phytotoxicity rating (0-100)", "setting": "[19]; 500 g al/ha", "result": 90}, {"measurement": "DIGSA phytotoxicity rating (0-100)", "setting": "[20]; 63 g al/ha", "result": 0}, {"measurement": "DIGSA phytotoxicity rating (0-100)", "setting": "[20]; 500 g al/ha", "result": 0}, {"measurement": "AMARE phytotoxicity rating (0-100)", "setting": "[21]; 63 g al/ha", "result": 20}, {"measurement": "AMARE phytotoxicity rating (0-100)", "setting": "[21]; 500 g al/ha", "result": 95}, {"measurement": "CASOB phytotoxicity rating (0-100)", "setting": "[22]; 63 g al/ha", "result": 20}, {"measurement": "CASOB phytotoxicity rating (0-100)", "setting": "[22]; 500 g al/ha", "result": 40}, {"measurement": "ABUTH phytotoxicity rating (0-100)", "setting": "[23]; 63 g al/ha", "result": 60}, {"measurement": "ABUTH phytotoxicity rating (0-100)", "setting": "[23]; 500 g al/ha", "result": 99}, {"measurement": "CORN crop damage rating (0-100)", "setting": "[24]; 63 g al/ha", "result": 0}, {"measurement": "CORN crop damage rating (0-100)", "setting": "[24]; 500 g al/ha", "result": 5}, {"measurement": "RICE crop damage rating (0-100)", "setting": "[25]; 63 g al/ha", "result": 0}, {"measurement": "RICE crop damage rating (0-100)", "setting": "[25]; 500 g al/ha", "result": 5}, {"measurement": "SOY crop damage rating (0-100)", "setting": "[26]; 63 g al/ha", "result": 0}, {"measurement": "SOY crop damage rating (0-100)", "setting": "[26]; 500 g al/ha", "result": 40}]}
